Data on 4 molecules can be found in ChEMBL document CHEMBL1135598, “In silico and NMR identification of inhibitors of the IGF-I and IGF-binding protein-5 interaction” (J Med Chem, 2002).

Experiment [1] deals with T1, Insulin-like growth factor-binding protein 5 (Homo sapiens, UniProt P24593). In words: Dissociation constant in DMSO binding to Insulin-like growth factor binding protein 5 at the residue L73.
Experiment [2] deals with T1, Insulin-like growth factor-binding protein 5. In words: Dissociation constant in PBS binding to Insulin-like growth factor binding protein 5 at the residue R87.
For experiment [3] the target is unchanged. In words: Dissociation constant in DMSO binding to Insulin-like growth factor binding protein 5 at the residue Y86.
For experiment [4] the target is unchanged. Description: Dissociation constant in PBS binding to Insulin-like growth factor binding protein 5 at the residue S85.
For experiment [5] the target is unchanged. In words: Dissociation constant in PBS binding to Insulin-like growth factor binding protein 5 at the residue L81.
Experiment [6] shares this target. Description: Dissociation constant in DMSO binding to Insulin-like growth factor binding protein 5 at the residue Y50.
The target is the same in experiment [7]. In words: Dissociation constant in DMSO binding to Insulin-like growth factor binding protein 5 at the residue L81.
For experiment [8] the target is unchanged. Description: Dissociation constant in PBS binding to Insulin-like growth factor binding protein 5 at the residue Y86.
For experiment [9] the target is unchanged. Description: Dissociation constant in DMSO binding to Insulin-like growth factor binding protein 5 at the residue K91.
Experiment [10] has the same target. In words: Dissociation constant binding to Insulin-like growth factor binding protein 5 at the residue L-81.
Experiment [11] shares this target. Description: Dissociation constant in DMSO binding to Insulin-like growth factor binding protein 5 at the residue R87.
For experiment [12] the target is unchanged. In words: Dissociation constant in PBS binding to Insulin-like growth factor binding protein 5 at the residue L73.
The target is the same in experiment [13]. In words: Dissociation constant in PBS binding to Insulin-like growth factor binding protein 5 at the residue Y50.
Experiment [14] shares this target. Description: Dissociation constant in DMSO binding to Insulin-like growth factor binding protein 5 at the residue S85.
For experiment [15] the target is unchanged. In words: Dissociation constant in PBS binding to Insulin-like growth factor binding protein 5 at the residue K91.
For experiment [16] the target is unchanged. Description: Dissociation constant in binding to Insulin-like growth factor binding protein 5 at the residue Y50.
Experiment [17] shares this target. In words: Dissociation constant in binding to Insulin-like growth factor binding protein 5 at the residue L81.
Experiment [18] has the same target. Description: Dissociation constant in binding to Insulin-like growth factor binding protein 5 at the residue Y86.
Experiment [19] has the same target. In words: Dissociation constant in binding to Insulin-like growth factor binding protein 5 at the residue L73.
The target is the same in experiment [20]. In words: Dissociation constant in binding to Insulin-like growth factor binding protein 5 at the residue R87.
The target is the same in experiment [21]. Description: Dissociation constant in binding to Insulin-like growth factor binding protein 5 at the residue S85.
Experiment [22] has the same target. In words: Dissociation constant in BS binding to Insulin-like growth factor binding protein 5 at the residue K91.

Molecules are shown by their SMILES.

T1 sequence (P24593 whole entry): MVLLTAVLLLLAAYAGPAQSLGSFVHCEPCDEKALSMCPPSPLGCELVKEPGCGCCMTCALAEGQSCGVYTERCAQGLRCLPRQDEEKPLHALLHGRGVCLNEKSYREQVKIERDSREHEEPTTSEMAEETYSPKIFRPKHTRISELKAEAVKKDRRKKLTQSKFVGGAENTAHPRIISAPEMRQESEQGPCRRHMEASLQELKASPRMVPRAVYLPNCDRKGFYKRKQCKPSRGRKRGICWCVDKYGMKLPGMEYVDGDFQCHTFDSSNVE

As a reminder, the Kd is a measure of binding affinity in units of concentration. Regarding `O=C(N[C@H](Cc1ccc(OP(=O)(O)O)cc1)C(=O)O)OCC1c2ccccc2-c2ccccc21`, the Kd in experiment [1] stood at 1310 µM; in experiment [2], 2360 µM; in experiment [3], 1900 µM; in experiment [4] it was 2330 µM; in [5] it was 2880 µM; in [6], 1580 µM. Besides, the Kd in [7] came to 2780 µM; in experiment [8] it was 1720 µM; in experiment [9], 2420 µM; in experiment [10] it was 2780 µM; in experiment [11], 1640 µM; in experiment [12], 2930 µM. Also, the Kd in experiment [13] was determined as 1820 µM; in experiment [14], 1380 µM; in [15] it was 2120 µM.
Consider `C[S+](C)[O-]` [DIMETHYL SULFOXIDE], for which the dissociation constant Kd in experiment [16] was found to be 648000 µM; in experiment [17], 610000 µM; in experiment [18], 783000 µM; in experiment [19] it was 541000 µM; in experiment [20], 921000 µM; in experiment [21], 650000 µM. In addition, the Kd in experiment [22] came out at 719000 µM.
As to `O=C(N[C@H](Cc1ccccc1)C(=O)O)OCC1c2ccccc2-c2ccccc21`, binding in [10] was put at a Kd of 1080 µM.
Still for that read-out and setting: the result for `CC(C)(C)Oc1ccc(C[C@@H](NC(=O)OCC2c3ccccc3-c3ccccc32)C(=O)O)cc1` reads 718 µM.
